Measured values published in patent US6737383B1, “Herbicidal oxadiazolidines” (priority 1999, dated 2004).

Columns and labels:
[1] = tested on: bedstraw; experiment: Test B pre/postemergence bedstraw; assay type: in vivo, Galium aparine
Procedure, shortened: (§1)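 Test chemicals in a non-phytotoxic solvent mixture with surfactant were sprayed preemergence onto planted seeds and postemergence onto plants 2 to 18 cm tall (1- to 4-leaf stage). After twelve to sixteen days in a greenhouse, injury was visually rated against untreated controls from 0 (no effect) to 10 (complete control).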

[2] = tested on: blackgrass; experiment: Test B pre/postemergence blackgrass; assay type: in vivo, Alopecurus myosuroides
Procedure, shortened: as §1

[3] = tested on: surinam grass; experiment: Test B pre/postemergence surinam grass; assay type: in vivo, Brachiaria decumbens
Procedure, shortened: as §1

[4] = tested on: corn; experiment: Test B pre/postemergence corn; assay type: in vivo, Zea mays
Procedure, shortened: as §1

[5] = tested on: crabgrass; experiment: Test B pre/postemergence crabgrass; assay type: in vivo, Digitaria sanguinalis
Procedure, shortened: as §1

[6] = tested on: giant foxtail; experiment: Test B pre/postemergence giant foxtail; assay type: in vivo, Setaria faberii
Procedure, shortened: as §1

[7] = tested on: rape; experiment: Test B pre/postemergence rape; assay type: in vivo, Brassica napus
Procedure, shortened: as §1

[8] = tested on: sugar beet; experiment: Test B pre/postemergence sugar beet; assay type: in vivo, Beta vulgaris
Procedure, shortened: as §1

[9] = tested on: velvetleaf; experiment: Test B pre/postemergence velvetleaf; assay type: in vivo, Abutilon theophrasti
Procedure, shortened: as §1

[10] = tested on: wheat; experiment: Test B pre/postemergence wheat; assay type: in vivo, Triticum aestivum
Procedure, shortened: as §1

[11] = tested on: wild oat; experiment: Test B pre/postemergence wild oat; assay type: in vivo, Avena fatua
Procedure, shortened: as §1

[12] = tested on: purple nutsedge; experiment: Test B pre/postemergence purple nutsedge; assay type: in vivo, Cyperus rotundus
Procedure, shortened: as §1

[13] = tested on: rice; experiment: Test B flood test rice; assay type: in vivo, Oryza sativa
Procedure, shortened: (§2)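 Each value is a visual injury score relative to controls, with 10 meaning complete control and 0 no effect. Evaluation took place twelve to sixteen days after the 2-leaf-stage plants were treated and kept in the greenhouse.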

[14] = tested on: smallflower flatsedge; experiment: Test B flood test smallflower flatsedge; assay type: in vivo, Cyperus difformis
Procedure, shortened: as §2

[15] = tested on: duck salad; experiment: Test B flood test duck salad; assay type: in vivo, Heteranthera limosa
Procedure, shortened: as §2

[16] = tested on: bamyardgrass; experiment: Test B flood test barnyardgrass; assay type: in vivo, Echinochloa crus-galli
Procedure, shortened: as §2

[17] = Postemergence, Rate 62 g/ha, scale 0 to 10, 0 is no effect, 10 is complete control
[18] = Postemergence, Rate 250 g/ha, scale 0 to 10, 0 no effect, 10 complete control
[19] = Preemergence, Rate 62 g/ha, scale 0 to 10 (0 no effect, 10 complete control)
[20] = Preemergence, Rate 125 g/ha, scale 0 to 10 (0 no effect, 10 complete control)
[21] = Preemergence, Rate 250 g/ha, scale of 0 to 10 where 0 is no effect and 10 is complete control
[22] = Preemergence, Rate 500 g/ha, scale 0 (no effect) to 10 (complete control)
[23] = Rate 125 g/ha, Postemergence, scale 0 to 10, 0 no effect, 10 complete control
[24] = Rate 500 g/ha, Postemergence, scale 0 to 10, 0 no effect, 10 complete control
[25] = Rate 125 g/ha, Postemergence section (flood test species), scale 0 to 10, 0 no effect, 10 complete control
[26] = Rate 500 g/ha, listed under Postemergence (flood test species), scale 0 to 10, 0 no effect, 10 complete control
[27] = flood test, listed under Postemergence, Rate 250 g/ha, scale 0 to 10, 0 no effect, 10 complete control

## CN(C(=O)n1oc(=O)n(Cc2cccs2)c1=O)c1ccccc1 [Compound 83]
[1]; [17]
  Bedstraw plant response rating: 0
[1]; [18]
  Bedstraw plant response rating: 0
[1]; [19]
  Bedstraw plant response rating: 0
[1]; [20]
  Plant response rating, Bedstraw: 0
[1]; [21]
  Plant response rating, Bedstraw: 0
[1]; [22]
  Bedstraw plant response rating: 0
[1]; [23]
  Bedstraw plant response rating: 0
[1]; [24]
  Bedstraw plant response rating: 0
[2]; [17]
  Blackgrass plant response rating: 0
[2]; [18]
  Blackgrass plant response rating: 0
[2]; [19]
  Blackgrass plant response rating: 0
[2]; [20]
  Plant response rating, Blackgrass: 0
[2]; [21]
  Plant response rating, Blackgrass: 0
[2]; [22]
  Blackgrass plant response rating: 0
[2]; [23]
  Blackgrass plant response rating: 0
[2]; [24]
  Blackgrass plant response rating: 0
[3]; [17]
  B. signalgrass plant response rating: 0
[3]; [18]
  B. signalgrass plant response rating: 0
[3]; [19]
  B. signalgrass plant response rating: 0
[3]; [20]
  Plant response rating, B. signalgrass: 0
[3]; [21]
  Plant response rating, B. signalgrass: 0
[3]; [22]
  B. signalgrass plant response rating: 0
[3]; [23]
  B. signalgrass plant response rating: 0
[3]; Rate 500 g/ha, Postemergence, scale of 0 to 10 where 0 is no effect and 10 is complete control
  B. signalgrass plant response rating: 0
[4]; [17]
  Corn plant response rating: 0
[4]; [18]
  Corn plant response rating: 0
[4]; [19]
  Corn plant response rating: 0
[4]; [20]
  Plant response rating, Corn: 0
[4]; [21]
  Plant response rating, Corn: 0
[4]; [22]
  Corn plant response rating: 0
[4]; [23]
  Corn plant response rating: 0
[4]; [24]
  Corn plant response rating: 0
[5]; [17]
  Crabgrass plant response rating: 0
[5]; [18]
  Crabgrass plant response rating: 0
[5]; [19]
  Crabgrass plant response rating: 0
[5]; [20]
  Plant response rating, Crabgrass: 0
[5]; [21]
  Plant response rating, Crabgrass: 0
[5]; [22]
  Crabgrass plant response rating: 0
[5]; [23]
  Crabgrass plant response rating: 0
[5]; [24]
  Crabgrass plant response rating: 0
[6]; [17]
  Giant foxtail plant response rating: 0
[6]; [18]
  Giant foxtail plant response rating: 0
[6]; [19]
  Giant foxtail plant response rating: 0
[6]; [20]
  Plant response rating, Giant foxtail: 0
[6]; [21]
  Plant response rating, Giant foxtail: 0
[6]; [22]
  Giant foxtail plant response rating: 0
[6]; [23]
  Giant foxtail plant response rating: 0
[6]; [24]
  Giant foxtail plant response rating: 0
[7]; [17]
  Rape plant response rating: 0
[7]; [18]
  Rape plant response rating: 0
[7]; [19]
  Rape plant response rating: 0
[7]; [20]
  Plant response rating, Rape: 0
[7]; [21]
  Plant response rating, Rape: 0
[7]; [22]
  Rape plant response rating: 0
[7]; [23]
  Rape plant response rating: 0
[7]; [24]
  Rape plant response rating: 0
[8]; [17]
  Sugarbeets plant response rating: 0
[8]; [18]
  Sugarbeets plant response rating: 0
[8]; [19]
  Sugarbeets plant response rating: 0
[8]; [20]
  Plant response rating, Sugarbeets: 0
[8]; [21]
  Plant response rating, Sugarbeets: 0
[8]; [22]
  Sugarbeets plant response rating: 0
[8]; [23]
  Sugarbeets plant response rating: 0
[8]; [24]
  Sugarbeets plant response rating: 0
[9]; [17]
  Velvetleaf plant response rating: 0
[9]; [18]
  Velvetleaf plant response rating: 2
[9]; [19]
  Velvetleaf plant response rating: 0
[9]; [20]
  Plant response rating, Velvetleaf: 0
[9]; [21]
  Plant response rating, Velvetleaf: 0
[9]; [22]
  Velvetleaf plant response rating: 0
[9]; [23]
  Velvetleaf plant response rating: 2
[9]; [24]
  Velvetleaf plant response rating: 4
[10]; [17]
  Wheat plant response rating: 0
[10]; [18]
  Wheat plant response rating: 0
[10]; [19]
  Wheat plant response rating: 0
[10]; [20]
  Plant response rating, Wheat: 0
[10]; [21]
  Plant response rating, Wheat: 0
[10]; [22]
  Wheat plant response rating: 0
[10]; [23]
  Wheat plant response rating: 0
[10]; [24]
  Wheat plant response rating: 0
[11]; [17]
  Wild oats plant response rating: 0
[11]; [18]
  Wild oats plant response rating: 0
[11]; [19]
  Wild oats plant response rating: 0
[11]; [20]
  Plant response rating, Wild oats: 0
[11]; [21]
  Plant response rating, Wild oats: 0
[11]; [22]
  Wild oats plant response rating: 0
[11]; [23]
  Wild oats plant response rating: 0
[11]; [24]
  Wild oats plant response rating: 0
[12]; [17]
  Nutsedge plant response rating: 0
[12]; [18]
  Nutsedge plant response rating: 0
[12]; [19]
  Nutsedge plant response rating: 0
[12]; [20]
  Plant response rating, Nutsedge: 0
[12]; [21]
  Plant response rating, Nutsedge: 0
[12]; [22]
  Nutsedge plant response rating: 0
[12]; [23]
  Nutsedge plant response rating: 0
[12]; [24]
  Nutsedge plant response rating: 0
[13]; [17]
  Rice plant response rating: 0
[13]; [25]
  Rice plant response rating: 0
[13]; [26]
  Rice plant response rating: 0
[13]; [27]
  Rice plant response rating: 0
[14]; [17]
  S. Flatsedge plant response rating: 0
[14]; [25]
  S. Flatsedge plant response rating: 0
[14]; [26]
  S. Flatsedge plant response rating: 0
[14]; [27]
  S. Flatsedge plant response rating: 0
[15]; [17]
  Ducksalad plant response rating: 0
[15]; [25]
  Ducksalad plant response rating: 0
[15]; [26]
  Ducksalad plant response rating: 0
[15]; [27]
  Ducksalad plant response rating: 0
[16]; [17]
  Barnyardgrass plant response rating: 0
[16]; [25]
  Barnyardgrass plant response rating: 0
[16]; [26]
  Barnyardgrass plant response rating: 0
[16]; [27]
  Barnyardgrass plant response rating: 0
